The supplement of paper PMC8149375

Columns and labels:
Settings in all cases: treatment: drug + dasatinib (fixed dose, not stated); 5 days
[1] = tested on: CAKI-1; assay: GI50 of drug in presence of dasatinib; higher = less potent
Method: (§1)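 Primary HTS combination arm: 8 RCC cell lines treated with 8 doses (up to 10 uM) of each library drug plus a fixed dose of dasatinib (dose not stated) for 5 days; viability read by CellTiter-Glo and normalised to DMSO. GI50 was fitted with XLfit, AUC is the area under the dose-response curve, and minimum viability is the lowest fraction of DMSO viability across doses.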

[2] = tested on: 786-O; assay: as above
Method: as §1

[3] = tested on: SN12C; assay: as above
Method: as §1

[4] = tested on: UO-31; assay: as above
Method: as §1

[5] = tested on: A498; assay: as above
Method: as §1

[6] = tested on: TK-10; assay: as above
Method: as §1

[7] = tested on: 769-P; assay: as above
Method: as §1

[8] = tested on: CAKI-1; assay: AUC of dose-response viability curve, drug + dasatinib, normalised to DMSO (arbitrary (AUC of normalised viability)); higher = less growth inhibition
Method: as §1

[9] = tested on: 786-O; assay: as above
Method: as §1

[10] = tested on: SN12C; assay: as above
Method: as §1

[11] = tested on: ACHN; assay: as above
Method: as §1

[12] = tested on: UO-31; assay: as above
Method: as §1

[13] = tested on: A498; assay: as above
Method: as §1

[14] = tested on: TK-10; assay: as above
Method: as §1

[15] = tested on: 769-P; assay: as above
Method: as §1

[16] = tested on: CAKI-1; assay: minimum viability across doses, drug + dasatinib, relative to DMSO (fraction); higher = less growth inhibition
Method: as §1

[17] = tested on: 786-O; assay: as above
Method: as §1

[18] = tested on: SN12C; assay: as above
Method: as §1

[19] = tested on: ACHN; assay: as above
Method: as §1

[20] = tested on: UO-31; assay: as above
Method: as §1

[21] = tested on: A498; assay: as above
Method: as §1

[22] = tested on: TK-10; assay: as above
Method: as §1

[23] = tested on: 769-P; assay: as above
Method: as §1

[24] = tested on: ACHN; assay: GI50 of drug in presence of dasatinib; higher = less potent
Method: as §1

| Compound | GI50 of drug [2] | GI50 of drug [24] | GI50 of drug [1] | GI50 of drug [3] | GI50 of drug [4] | GI50 of drug [5] | GI50 of drug [6] | GI50 of drug [7] | AUC of dose-response viability curve [8] | AUC of dose-response viability curve [9] | AUC of dose-response viability curve [10] | AUC of dose-response viability curve [11] | AUC of dose-response viability curve [12] | AUC of dose-response viability curve [13] | AUC of dose-response viability curve [14] | AUC of dose-response viability curve [15] | minimum viability across doses [16] | minimum viability across doses [17] | minimum viability across doses [18] | minimum viability across doses [19] | minimum viability across doses [20] | minimum viability across doses [21] | minimum viability across doses [22] | minimum viability across doses [23] |
| --- | --- | --- | --- | --- | --- | --- | --- | --- | --- | --- | --- | --- | --- | --- | --- | --- | --- | --- | --- | --- | --- | --- | --- | --- |
| CO[C@H]1C[C@@H]2CC[C@@H](C)[C@@](O)(O2)C(=O)C(=O)N2CCCC[C@H]2C(=O)O[C@H]([C@H](C)C[C@@H]2CC[C@@H](OCCO)[C@H](OC)C2)CC(=O)[C@H](C)/C=C(\C)[C@@H](O)[C@@H](OC)C(=O)[C@H](C)C[C@H](C)/C=C/C=C/C=C/1C [Everolimus (RAD001)] + Cc1nc(Nc2ncc(C(=O)Nc3c(C)cccc3Cl)s2)cc(N2CCN(CCO)CC2)n1 [dasatinib] | < 0.003 µM | < 0.003 µM | 0.117 µM | > 10 µM | 0.231 µM | > 10 µM | – | – | 1.7 | 1.06 | 1.93 | 1.06 | 1.79 | 2.43 | 1.95 | 1.75 | 0.353 | 0.253 | 0.489 | 0.225 | 0.396 | 0.645 | 0.426 | 0.416 |
| CO[C@H]1CC2CC[C@@H](C)[C@@](O)(O2)C(=O)C(=O)N2CCCC[C@H]2C(=O)O[C@H]([C@H](C)C[C@@H]2CCC(OC(=O)C(C)(CO)CO)[C@H](OC)C2)CC(=O)[C@H](C)/C=C(\C)[C@@H](O)[C@@H](OC)C(=O)[C@H](C)C[C@H](C)/C=C/C=C/C=C/1C (stereo in doubt) [Temsirolimus (Torisel)] + Cc1nc(Nc2ncc(C(=O)Nc3c(C)cccc3Cl)s2)cc(N2CCN(CCO)CC2)n1 [dasatinib] | < 0.003 µM | 0.00325 µM | 0.0242 µM | – | 0.0699 µM | > 10 µM | 0.512 µM | – | 1.42 | 1.2 | 1.75 | 1.27 | 1.59 | 1.99 | 1.97 | 1.7 | 0.273 | 0.304 | 0.446 | 0.296 | 0.226 | 0.505 | 0.393 | 0.402 |
| CO[C@H]1C[C@H]2CC[C@@H](C)[C@@](O)(O2)C(=O)C(=O)N2CCCC[C@H]2C(=O)O[C@H]([C@H](C)C[C@@H]2CC[C@H](OP(C)(C)=O)[C@H](OC)C2)CC(=O)[C@H](C)/C=C(\C)[C@@H](O)[C@@H](OC)C(=O)[C@H](C)C[C@H](C)/C=C/C=C/C=C/1C (stereo in doubt) [Deforolimus (Ridaforolimus)] + Cc1nc(Nc2ncc(C(=O)Nc3c(C)cccc3Cl)s2)cc(N2CCN(CCO)CC2)n1 [dasatinib] | < 0.003 µM | 0.00436 µM | 0.0168 µM | 0.0256 µM | 0.0286 µM | – | – | – | 1.38 | 1.11 | 1.67 | 1.18 | 1.39 | 1.95 | 1.98 | 1.71 | 0.295 | 0.287 | 0.407 | 0.263 | 0.257 | 0.493 | 0.4 | 0.397 |

Further lines, with some results ahead:

| GI50 of drug [2] | GI50 of drug [24] | Compound | GI50 of drug [1] | GI50 of drug [3] | GI50 of drug [4] | GI50 of drug [5] | GI50 of drug [6] | GI50 of drug [7] | AUC of dose-response viability curve [8] | AUC of dose-response viability curve [9] | AUC of dose-response viability curve [10] | AUC of dose-response viability curve [11] | AUC of dose-response viability curve [12] | AUC of dose-response viability curve [13] | AUC of dose-response viability curve [14] | AUC of dose-response viability curve [15] | minimum viability across doses [16] | minimum viability across doses [17] | minimum viability across doses [18] | minimum viability across doses [19] | minimum viability across doses [20] | minimum viability across doses [21] | minimum viability across doses [22] | minimum viability across doses [23] |
| --- | --- | --- | --- | --- | --- | --- | --- | --- | --- | --- | --- | --- | --- | --- | --- | --- | --- | --- | --- | --- | --- | --- | --- | --- |
| > 10 µM | – | CCn1c(N)c(C(=O)NC)c(=O)c2ccc(C#C[C@@](C)(O)COC)nc21 + Cc1nc(Nc2ncc(C(=O)Nc3c(C)cccc3Cl)s2)cc(N2CCN(CCO)CC2)n1 [dasatinib] | > 10 µM | > 10 µM | > 10 µM | > 10 µM | > 10 µM | > 10 µM | 2.43 | 2.59 | 2.52 | 1.87 | 4.43 | 3.2 | 2.72 | 2.74 | 0.588 | 0.589 | 0.684 | 0.432 | 0.884 | 0.773 | 0.721 | 0.671 |
| 6.65 µM | – | CCS(=O)(=O)N1CC(CC#N)(n2cc(-c3ncnc4[nH]ccc34)cn2)C1 + Cc1nc(Nc2ncc(C(=O)Nc3c(C)cccc3Cl)s2)cc(N2CCN(CCO)CC2)n1 [dasatinib] | 8.06 µM | > 10 µM | > 10 µM | > 10 µM | > 10 µM | > 10 µM | 2.4 | 2.58 | 2.51 | 1.78 | 4.24 | 4.02 | 2.61 | 2.46 | 0.47 | 0.399 | 0.692 | 0.44 | 0.917 | 1.07 | 0.689 | 0.625 |
| > 10 µM | – | CCCNC(=O)Nc1ccc(Oc2ncnc3cc(OC)c(OC)cc23)cc1Cl [KRN 633] + Cc1nc(Nc2ncc(C(=O)Nc3c(C)cccc3Cl)s2)cc(N2CCN(CCO)CC2)n1 [dasatinib] | > 10 µM | > 10 µM | > 10 µM | > 10 µM | > 10 µM | > 10 µM | 2.31 | 2.06 | 2.51 | 1.76 | 3.62 | 3.47 | 2.5 | 2.44 | 0.556 | 0.468 | 0.612 | 0.421 | 0.889 | 0.847 | 0.613 | 0.511 |
| 0.113 µM | – | CCN(CCO)CCCOc1ccc2c(Nc3cc(CC(=O)Nc4cccc(F)c4)n[nH]3)ncnc2c1 [Barasertib (AZD1152-HQPA)] + Cc1nc(Nc2ncc(C(=O)Nc3c(C)cccc3Cl)s2)cc(N2CCN(CCO)CC2)n1 [dasatinib] | 0.678 µM | > 10 µM | > 10 µM | > 10 µM | > 10 µM | 1.23 µM | 2.04 | 1.61 | 2.41 | 1.83 | 3.22 | 3.31 | 2.65 | 2.09 | 0.402 | 0.157 | 0.628 | 0.417 | 0.842 | 0.841 | 0.685 | 0.346 |
